The values that follow come from patent publication US12558358B2 (UNIVERZITA PALACKEHO V OLOMOUCI, priority 2019, dated 2026).

The subject of the assay is U2OS cells with mBmal1-Luc reporter. Kind of assay: Combination with other chronotherapeutics, mBmal1-Luc U2OS cells (Example 6). It is filed as cell-based, human. The protocol:
Human osteosarcoma U2OS cells were grown in standard DMEM with 10% fetal calf serum. U2OS cells were transduced with lentiviral particles containing the reporter pLV6-Bmal1-Luc (S. Brown, Addgene plasmid #68833) and selected under Blasticidin. The cell line was clonally expanded and a single monoclonal cell line was used for further experiments. Cells were cultured in a 384-well plate in growth medium to 90+% confluence. Test compounds or vehicle (DMSO) were applied to recording medium with 100 U/ml penicillin, 100 μg/ml streptomycin, 1×GlutaMAX (ThermoFisher, Waltham, MA, USA), 10% fetal calf serum (Sigma) and 0.1 mM Luciferin-EF (Promega Madison, WI, USA). Luminescence was recorded every hour for additional 144 hours in Luminoskan Ascent (ThermoFisher). Circadian rhythm analysis was performed by cosinor analysis.

Structures are written as SMILES.

Consider `c1coc(CNc2ncnc3nc[nH]c23)c1` [N-(furan-2-ylmethyl)-7H-purin-6-amine], for which, for the setting “50 μM together with PF670, T0901317, KL001, rosiglitazon, SR9009, FIG. 6A-6E”, the “effect on the length of the circadian period in combination with compounds that extend the circadian period” value is “additive or even synergistic effect”. Moreover, the “effect on the period when added to harmine” value (50 μM together with harmine, FIG. 6F) is “caused a decrease of the period”.
